{"source": "PubChem BioAssay AID488790", "about": "(NMMLSC, 2010)", "tested_on": "S. cerevisiae AGP1-GFP strain, flow cytometry fluorescence, 3 h", "test": "AGP1-GFP level modulation, analog dose series – cell-based, flow cytometry, S. cerevisiae, cherry pick 3, SAR follow-up (AID 488790)"}
{"smiles": "CCOC(=O)CS(=O)(=O)c1nc(-c2ccccc2)cc(C(F)(F)F)n1", "values": [{"measurement": "EC50", "value": 4.59, "unit": "µM"}]}
